Results as given in US20260092061A1, “COMPOUNDS FOR TARGETED PROTEIN DEGRADATION” (Amphista Therapeutics Limited, priority 2022, published 2026).

Legend:
BRD9 [1] = biological target: T1, BRD9 (Homo sapiens, UniProt Q9H8M2); experiment: BRD9 degradation, HiBiT-BRD9 KI HEK293 (LgBiT) cells, NanoGlo Lytic Endpoint assay (Assay Protocol 1); type: cell-based; conditions: BRD9 degradation
T1 sequence (Q9H8M2 1-597): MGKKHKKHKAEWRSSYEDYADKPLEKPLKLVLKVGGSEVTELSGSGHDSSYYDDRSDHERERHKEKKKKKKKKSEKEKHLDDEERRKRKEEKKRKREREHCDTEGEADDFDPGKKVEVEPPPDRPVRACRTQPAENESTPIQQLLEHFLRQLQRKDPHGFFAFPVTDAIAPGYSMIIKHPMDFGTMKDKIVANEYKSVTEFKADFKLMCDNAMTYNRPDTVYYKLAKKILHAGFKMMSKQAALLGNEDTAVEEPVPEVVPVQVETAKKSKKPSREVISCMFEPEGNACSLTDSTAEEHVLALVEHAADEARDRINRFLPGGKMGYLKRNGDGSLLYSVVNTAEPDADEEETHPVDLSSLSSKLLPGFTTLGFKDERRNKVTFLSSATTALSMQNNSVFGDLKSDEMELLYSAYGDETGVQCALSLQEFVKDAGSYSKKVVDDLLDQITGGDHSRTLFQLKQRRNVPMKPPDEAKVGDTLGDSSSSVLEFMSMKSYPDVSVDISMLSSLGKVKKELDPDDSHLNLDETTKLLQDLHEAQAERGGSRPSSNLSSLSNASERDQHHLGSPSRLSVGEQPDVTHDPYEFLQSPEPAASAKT
Experimental: HiBiT-BRD9 KI HEK293 (LgBiT) Cells (Promega CS3023412) were seeded at 8000 cells per well (38 μL) in sterile white bottom 384 well plates (Invitrogen 164610 or Greiner 781080) and incubated overnight at 37° C. with 5% CO2. The next day, compounds were prepared at 1000× final concentration in DMSO and diluted 1:100 in media (DMEM PAN Biotech P04-03550+10% FBS ATCC 302025). 4 μL compound was added to each well of the cell plate and incubated for 6 h at 37° C. with 5% CO2 BRD9 expression was quantified using the NanoGlo Lytic Endpoint assay (Promega N3050). The lytic buffer was equilibrated to room temperature for 10-15 min before lytic reagent was prepared by adding substrate (1:50) and LgBit protein (1:100) in lytic buffer. 40 μL lytic reagent mix was added to each well of the cel plate and plates were centrifuged briefly at ˜50g. Plates were incubated with shaking (350 RPM) for 12-24 min before reading using the LUM plus module of a BMG Pherastar FSX. Data was analysed using Dotmatics software and % BRD9 remaining was calculated by normalisation to average data from high and low control wells (DMSO treated cels and no cells respectively).

BRD9 [2] = biological target: T1, BRD9; experiment: Degradation of BRD9 (IF), immunofluorescence in MV4-11 cells, 24 hours (Assay Protocol 2); type: cell-based; set-up: A suspension of MV4-11 cells (ATCC CRL-9591) was prepared; host or cells: MV4-11; conditions: BRD9 degradation
Method in brief: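 % BRD9 remaining, scaled between DMSO (high) and 100 nM CFT-8634 (low) control wells, derives from mean Alexa 647 contrast in central nuclei by high-content imaging. MV4-11 cells had 24 h compound exposure at 37° C. before PFA fixation, Triton permeabilisation and anti-BRD9 E4Q3F immunostaining.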

[3] = MV4-11, Table 4, determined according to Assay Protocol 2, read-out: Dmax^2
[4] = Table 4, determined according to Assay Protocol 2, read-out: DC50^2
[5] = Assay protocol 2, read-out: DC50
[6] = MV4-11, Assay protocol 2, read-out: Dmax

Row | SMILES | DC50 (BRD9 [2]; [5]) [nM] | Dmax (BRD9 [2]; [6]) [%] | further results
1 | COc1cc(-c2cn(C)c(=O)c(C)c2C)cc(OC)c1CN1CC2CC(C1)N2C(=O)/C(C#N)=C/c1nccs1 (mixture of isomers) [BRD9l, (E/Z)-2-(3-(2,6-dimethoxy-4-(1,4,5-trimethyl-6-oxo-1,6-dihydropyridin-3-yl)benzyl)-3,6-diazabicyclo[3.1.1]heptane-6-carbonyl)-3-(thiazol-2-yl)acrylonitrile] |  |  | Dmax (BRD9 [1]; HEK293, Table 4, determined according to Assay Protocol 1, read-out: Dmax^1): 50 to 70%
2 | COc1cc(-c2cn(C)c(=O)c3cnccc23)cc(OC)c1CN1CCN(Cc2cccc3c2CCN(C(=O)/C(C#N)=C/c2cccc(Br)n2)C3C)CC1 (mixture of isomers) [Compound A5, (E/Z)-3-(6-bromopyridin-2-yl)-2-(5-((4-(2,6-dimethoxy-4-(2-methyl-1-oxo-1,2-dihydro-2,7-naphthyridin-4-yl)benzyl)piperazin-1-yl)methyl)-1-methyl-1,2,3,4-tetrahydroisoquinoline-2-carbonyl)acrylonitrile] |  |  | Dmax at 1 µM (BRD9 [1]; HEK293, Table 2, Assay Protocol 1, 1 μM compound at 6 h of treatment, read-out: Assay 1 Dmax): 40 to 70%; DC50 (BRD9 [1]; Table 2, Assay Protocol 1, 6 h of treatment, read-out: Assay 1 DC50): < 1.25 nM
3 | COc1cc(-c2cn(C)c(=O)c(C)c2C)cc(OC)c1C(=O)N1CCN(C(=O)/C(C#N)=C/C(C)(C)C)CC1 [BRD9s, (E/Z)-2-(4-(2,6-dimethoxy-4-(1,4,5-trimethyl-6-oxo-1,6-dihydropyridin-3-yl)benzoyl)piperazine-1-carbonyl)-4,4-dimethylpent-2-enenitrile] |  |  | Dmax (BRD9 [2]; [3]): 50 to 70%; DC50 (BRD9 [2]; [4]): < 25 nM
4 | COc1cc(-c2cn(C)c(=O)c(C)c2C)cc(OC)c1C(=O)N1CCCN(C(=O)/C(C#N)=C/C(C)(C)C)CC1 [BRD9v, (E/Z)-2-(4-(2,6-dimethoxy-4-(1,4,5-trimethyl-6-oxo-1,6-dihydropyridin-3-yl)benzoyl)-1,4-diazepane-1-carbonyl)-4,4-dimethylpent-2-enenitrile] |  |  | Dmax (BRD9 [2]; [3]): 50 to 70%; DC50 (BRD9 [2]; [4]): < 25 nM
5 | COc1cc(-c2cn(C)c(=O)c(C)c2C)cc(OC)c1CN(C)C1CCN(C(=O)/C(C#N)=C/c2cccc(Br)n2)CC1 [BRD9z, (E/Z)-3-(6-bromopyridin-2-yl)-2-(4-((2,6-dimethoxy-4-(1,4,5-trimethyl-6-oxo-1,6-dihydropyridin-3-yl)benzyl)(methyl)amino)piperidine-1-carbonyl)acrylonitrile] |  |  | Dmax (BRD9 [2]; [3]): > 70%; DC50 (BRD9 [2]; [4]): > 200 nM
6 | COc1cc(-c2cn(C)c(=O)c(C)c2C)cc(OC)c1CN1CCN(C(=O)[C@H]2CN(C(=O)/C(C#N)=C/C(C)(C)C)C[C@@H]2C)CC1 [Compound B214] |  |  | Dmax (BRD9 [2]; [3]): 50 to 70%; DC50 (BRD9 [2]; [4]): > 200 nM
7 | COc1cc(-c2cn(C)c(=O)c(C)c2C)cc(OC)c1CN1CCN(Cc2ccc3c(c2)CN(C(=O)/C(C#N)=C/C(C)(C)C)CC3)C2(CC2)C1 [Compound C1, (E/Z)-2-(7-((7-(2,6-dimethoxy-4-(1,4,5-trimethyl-6-oxo-1,6-dihydropyridin-3-yl)benzyl)-4,7-diazaspiro[2.5]octan-4-yl)methyl)-1,2,3,4-tetrahydroisoquinoline-2-carbonyl)-4,4-dimethylpent-2-enenitrile] | < 1.25 | > 75 | 
8 | COc1cc(-c2cn(C)c(=O)c(C)c2C)cc(OC)c1CN1CCC2(CCN(c3cccc4c3CCN(C(=O)/C(C#N)=C/C(C)(C)C)C4C)C2)C1 (stereo not shown) [Compound C42, (E2Z)-2-(5-(7-(2,6-dimethoxy-4-(1,4,5-trimethyl-6-oxo-1,6-dihydropyridin-3-yl)benzyl)-2,7-diazaspiro[4.4]nonan-2-yl)-1-methyl-1,2,3,4-tetrahydroisoquinolin-2-carbonyl)-4,4-dimethylpent-2-enenitrile] | 1.25 to 10 | 40 to 70 | 
9 | COc1cc(-c2cn(C)c(=O)c(C)c2C)cc(OC)c1CN1CCC(CN(C)c2ccc3c(c2)C(C)N(C(=O)/C(C#N)=C/C(C)(C)C)CC3)CC1 (stereo not shown) [Compound C46] | 1.25 to 10 | 40 to 70 | 
10 | COc1cc(-c2cn(C)c(=O)c(C)c2C)cc(OC)c1CN1CCC2(CC1)CCN(c1cccc3c1CCN(C(=O)/C(C#N)=C/C(C)(C)C)[C@@H]3C)C2 [Compound C47] | 1.25 to 10 | > 75 | 
11 | COc1cc(-c2cn(C)c(=O)c(C)c2C)cc(OC)c1CN1CCC(COc2ccc3c(c2)[C@H](C)N(C(=O)/C(C#N)=C/C(C)(C)C)CC3)CC1 [Compound C61] | < 1.25 | > 75 | 
12 | COc1cc(-c2cn(C)c(=O)c(C)c2C)ccc1OC1CCC(Cc2cccc3c2CCN(C(=O)/C(C#N)=C/C(C)(C)N2CCN(C)CC2)C3C(C)C)CC1 (stereo not shown) [Compound C85] | 25 to 1000 | > 75 | 

Now from value to compound, other results behind:

Row | DC50 (BRD9 [2]; [5]) [nM] | Dmax (BRD9 [2]; [6]) [%] | SMILES | further results
13 | 1.25 to 10 | 40 to 70 | COc1cc(-c2cn(C)c(=O)c(C)c2C)cc(OC)c1CN1CCC2(CC1)CCN(c1cccc3c1CCN(C(=O)/C(C#N)=C/C(C)(C)C)C3C)C2 (stereo not shown) [Compound B63, (E2Z)-2-(5-(8-(2,6-dimethoxy-4-(1,4,5-trimethyl-6-oxo-1,6-dihydropyridin-3-yl)benzyl)-2,8-diazaspiro[4.5]decan-2-yl)-1-methyl-1,2,3,4-tetrahydroisoquinoline-2-carbonyl)-4,4-dimethylpent-2-enenitrile] | 
14 | 25 to 1000 | 40 to 70 | COc1cc(-c2cn(C)c(=O)c3[nH]ncc23)cc(OC)c1CN1CCN(C(=O)/C(C#N)=C/C(C)(C)C)CC1 [Compound B215, (E/Z)-2-(4-(2,6-dimethoxy-4-(6-methyl-7-oxo-6,7-dihydro-1H-pyrazolo[3,4-c]pyridin-4-yl)benzyl)piperazine-1-carbonyl)-4,4-dimethylpent-2-enenitrile] | 
15 | 1.25 to 10 | > 75 | COc1cc(-c2cn(C)c(=O)c(C)c2C)cc(OC)c1CN1CCN(Cc2cccc3c2CCN(C(=O)/C(C#N)=C/C(C)(C)C)C3)C2(CC2)C1 [Compound C2, (E/Z)-2-(5-((7-(2,6-dimethoxy-4-(1,4,5-trimethyl-6-oxo-1,6-dihydropyridin-3-yl)benzyl)-4,7-diazaspiro[2.5]octan-4-yl)methyl)-1,2,3,4-tetrahydroisoquinoline-2-carbonyl)-4,4-dimethylpent-2-enenitrile] | 
16 |  | 40 to 70 | COc1cc(-c2cn(C)c(=O)c(C)c2C)cc(OC)c1CN1CC(Cc2cccc3c2CCN(C(=O)/C(C#N)=C/C(C)(C)C)C3C)C1 (stereo not shown) [Compound C49] | 
17 | 25 to 1000 | 70 to 75 | COc1cc(-c2cn(C)c(=O)c(C)c2C)ccc1OC1CCC(Cc2cccc3c2CCN(C(=O)/C(C#N)=C/C(C)(C)N2CCN(C)CC2)C3C)CC1 (stereo not shown) [Compound C50] | 
18 | 25 to 1000 | 40 to 70 | COc1cc(-c2cn(C)c(=O)c(C)c2C)ccc1OC1CCC(Cc2cccc3c2CCN(C(=O)/C(C#N)=C/C(C)(C)N2CCN(C4COC4)CC2)C3C)CC1 (stereo not shown) [Compound C51] | 
19 | 25 to 1000 | 40 to 70 | COc1cc(-c2cn(C)c(=O)c(C)c2C)cc(OC)c1CN1CCC(Cc2ccc3c(c2)C(C)N(C(=O)/C(C#N)=C/C(C)(C)C)CC3)CC1(C)C (stereo not shown) [Compound C53] | 
20 | 25 to 1000 | 40 to 70 | COc1cc(-c2cn(C)c(=O)c(C)c2C)cc(OC)c1CN1CCC2(CCN(c3ccc4c(c3)[C@H](C)N(C(=O)/C(C#N)=C/C(C)(C)C)CC4)CC2)C1 [Compound C54] | 
21 | 25 to 1000 | > 75 | COc1cc(-c2cn(C)c(=O)c(C)c2C)cc(OC)c1CN1CC(=O)N(Cc2cccc3c2CCN(C(=O)/C(C#N)=C/C(C)(C)C)C3C)C(C)(C)C1 (stereo not shown) [Compound C55] | 
22 | 25 to 1000 | > 75 | COc1cc(-c2cn(C)c(=O)c(C)c2C)ccc1O[C@H]1CC[C@@H](Nc2cccc3c2CCN(C(=O)/C(C#N)=C/C(C)(C)C)C3C)CC1 (stereo partly shown) [Compound C56] | 
23 | 10 to 25 | > 75 | COc1cc(-c2cn(C)c(=O)c(C)c2C)ccc1OC1CCN(Cc2cccc3c2CCN(C(=O)/C(C#N)=C\C(C)(C)C)C3C)C(C)(C)C1 (stereo not shown) [Compound C58] | 
24 | 10 to 25 | > 75 | COc1cc(-c2cn(C)c(=O)c(C)c2C)cc(OC)c1CN1CCC(Cc2cccc3c2CCN(C(=O)/C(C#N)=C/C(C)(C)C)C3C)C(C)(C)C1 (stereo not shown) [Compound C62] | 
